Measured values published in patent EP1186305A1 (Schering Aktiengesellschaft, priority 2000, dated 2002).

How the values were obtained:
[1] = Phantom studies with conventional mammography (X-ray absorption of contrast media in agar discs); settings: 10 mm agar discs in 5 cm water phantom, film mammography
Description: The agar pieces were prepared in cell-culture well-plates having a diameter of 24 mm and a final height of 10 mm. After formation of solid agar the agar discs were placed in a water phantom containing 5 cm height of water. Additionally a control agar disc prepared with physiological saline instead of CM volume was added. The whole phantom was imaged with a commercial available mammograph at various energies of 30 kV, 25 and 20 kV and 140 mAs. After exposure the mammographic films were developed according to standard quality guidelines. Later the films were digitized and signal intensities of the agar discs and surrounding water background were measured with a imaging analyzing software.

[2] = Osmolality of contrast media formulations (vapor pressure osmometer); format: physicochemical
Description: (§1) For this purpose contrast media formulation with a molar concentration of […] for monomeric compounds and of […] for dimeric compounds, equivalent to a iodine concentration of 300 mgI/mL or 189 mgBr/mL were prepared at neutral pH. After heat sterilization under standard conditions for 20 min at 120°C changes in pH and free bromine and iodine was measured. The osmolality was measured at 37°C using a Knauer vapor pressure osmometer. Viscosity of contrast media formulations was determined using a Schott capillary viscosimeter which was standardized with water.

[3] = Viscosity of contrast media formulations (capillary viscosimeter); format: physicochemical; settings: formulations 0.788 (monomer) or 0.394 (dimer) mol/L
Description: as §1

[4] = Aqueous solubility; format: physicochemical
[5] = system: erythrocyte morphology; assay: Influence on erythrocyte morphology in rat blood (damage index); format: cell-based; settings: for Erythrocyte morphology Damage index 2 h: six parts blood to one part test substance, 2 h incubation
Description: Six parts by volume was mixed with one part by volume of each test substance. The mixtures were examined with and optical microscope immediately, 1 hour and 2 hours after incubation in terms of a damage index of blood cells.

[6] = Pharmacokinetic profile after intravenous administration of 3H-labelled compound; format: in vivo, male Sprague-Dawley rats; settings: rats
Description: The pharmacokinetic profile of example 4 was examined after intravenous administration of 3H-labelled example 4 to male Sprague-Dawley rats. For this purpose example 4 was labeled with tritium of a chemical concentration of 300 mg / mL and a radioactive concentration of 2.75 MBq/mL. After intravenous injection in the right jugular vein via a catheter at a dose of 600 mg EXAMPLE 4/kg blood samples of 400 µl were collected in plastic tubes at 0.083, 0.25, 0.5, 1, 2, 4, 6, 8 and 24 hours after administration. Plasma samples were obtained after blood sample centrifugation at 250 g for 10 min. After injection, the rats were transferred in metabolic cages allowing the collection of urine and faeces at different intervals. Aliquots of 100 µl of samples with blood or urine were added to 10 ml of scintillation cocktail and the radioactivity was measured by means of a Tricor-2500 TR automatic scintillation spectrometer. Faeces samples were freeze-dried for two days. They were milled and aliquots of 50 or 100 mg were taken, moistened with 1 mL water and digested with Soluene-350® and 1 mL of isopropyl alcohol at 50 °C for 24 hours. Digested faeces samples were bleached and radioactivity was measured as mentioned above. Plasma levels of example 4 and mean cumulative urinary and faecal excretion data were fitted to a two-compartment model. Curve fit and evaluation of kinetic parameters was performed on the TOP-Fit v 2.0β program.

[7] = system: male Sprague-Dawley mice; assay: Acute tolerance, approximate LD50 after single intravenous injection
Description: (§2) The behavior of the animals and the lethality was monitored for 7 days post injection.

[8] = in vivo; settings: male, mouse, iv
Description: as §2

[9] = i.v. 600 mg/kg, two-compartment model

Compound | Osmolality a) monomer, 0.788 mol/L, 37°C [2] [mOsm/kg water] | Viscosity (37°C) [3] [mPa·s] | Aqueous solubility [4] [mgBr/mL] | influence on erythrocyte morphology compared to iodinated reference substances [5] | Erythrocyte morphology Damage index 2 h [5] | increase of the tolerability with respect to the iodinated and brominated reference compounds [7] | Osmolality b) dimer, 0.394 mol/L, 37° C [2] [mOsm/kg water] | other results
CN(CC(O)CO)C(=O)c1c(Br)c(NC(=O)CO)c(Br)c(C(=O)NCC(O)CO)c1Br (centres unmarked) [Example 4, 2,4,6-tribromo-5-hydroxyacetylamino-N,N'-bis-(2,3-dihydroxypropyl)-N-methylisophthalamide] | 818 | 3.5 | >400 | substantially less influence on erythrocyte morphology than the iodinated reference substances | 0.82 | 13 - 23% | – | detectable down to concentrations [1]: 1.31 mmol/L; detectable down to concentrations, moles equivalent to mg I/mL of Iohexol [1]: 0.5 mg I/mL; in faeces measured ([6]; 24 h p.i.): 5.1 % I.D.; in the urine detected ([6]; 24 h p.i.): 63.7 % I.D.; metabolisation (bile fluid, HPLC-analysis) ([6]; bile collected via catheter in the bile duct): no metabolisation; cumulative faecal excretion ([6]; i.v. 600 mg/kg, at 24 h): 5.39 % of injected dose; cumulative urinary excretion ([6]; i.v. 600 mg/kg, at 24 h p.i.): 62.8 % of injected dose; distribution volume Vc [6, 9]: 0.26 L/kg; t½ α [6, 9]: 11.4 min; t½ β [6, 9]: 31.2 min
NC(=O)c1c(Br)c(C(=O)NC(CO)C(O)CO)c(Br)c(N(CCO)C(=O)CO)c1Br (centres unmarked) [Example 14, 2,4,6-tribromo-5-[N-(2-hydroxyethyl)hydroxyacetylamino]-N-(1-hydroxymethyl-2,3-dihydroxypropyl)isophthalamide] | 500 | 3.4 | >400 | substantially less influence on erythrocyte morphology than the iodinated reference substances | 0.88 | 13 - 23% | – | –
NC(=O)c1c(Br)c(C(=O)NCC(O)CO)c(Br)c(N(CC(O)CO)C(=O)CC(=O)N(CC(O)CO)c2c(Br)c(C(N)=O)c(Br)c(C(=O)NCC(O)CO)c2Br)c1Br (centres unmarked) [Example 25, N,N'-bis-[2,4,6-tribromo-5-carbamoyl-3-[N-(2,3-dihydroxypropyl)carbamoyl]phenyl]-N,N'-bis-(2,3-dihydroxypropyl)-malonamide] | – | 5.5 | 400 | substantially less influence on erythrocyte morphology than the iodinated reference substances | 0.45 | 13 - 23% | 320 | –
CN(C(=O)CC(=O)N(C)c1c(Br)c(C(=O)NC(CO)C(O)CO)c(Br)c(C(=O)NC(CO)C(O)CO)c1Br)c1c(Br)c(C(=O)NC(CO)C(O)CO)c(Br)c(C(=O)NC(CO)C(O)CO)c1Br (centres unmarked) [Example 26, N,N'-bis-[2,4,6-tribromo-3,5-bis-[N-(1-hydroxymethyl-2,3-dihydroxypropyl)carbamoyl]phenyl]-N,N'-dimethylmalonamide] | – | 6.3 | 400 | substantially less influence on erythrocyte morphology than the iodinated reference substances | 0.51 | 13 - 23% | 370 | –
CC(=O)N(CC(O)CO)c1c(I)c(C(=O)NCC(O)CO)c(I)c(C(=O)NCC(O)CO)c1I (centres unmarked) [Iohexol, 5-[N-(2,3-dihydroxypropyl)acetylamino]-2,4,6-triiodo-N,N'-bis-(2,3-dihydroxypropyl)isoph-thalamide, reference compound] | – | – | – | – | 1.31 | – | – | –
CN(C(=O)CC(=O)N(C)c1c(I)c(C(=O)NC(CO)C(O)CO)c(I)c(C(=O)NC(CO)C(O)CO)c1I)c1c(I)c(C(=O)NC(CO)C(O)CO)c(I)c(C(=O)NC(CO)C(O)CO)c1I (centres unmarked) [Iotrolan, N,N'-bis-[2,4,6-triiodo-3,5-bis-[N-(1-hydroxymethyl-2,3-dihydroxypropyl)carbamoyl]phenyl]-N,N'-dimethylmalonamide, reference compound] | – | 8.5 | >400 | – | 0.69 | – | 320 | LD50 at 7 days ([8]; Sprague-Dawley): 63000 µmol/kg
CC(=O)N(CC(O)CO)c1c(Br)c(C(=O)NCC(O)CO)c(Br)c(C(=O)NCC(O)CO)c1Br (centres unmarked) [reference compound] | 908 | 4.6 | > 300 | – | – | – | – | LD50 at 7 days [8]: ~59000 µmol/kg
